Patent US20250222063A1, “TOPICAL FORMULATION FOR USE IN THE TREATMENT OR PREVENTION OF DRY ITCHY SKIN” (MC2 THERAPEUTICS LTD, priority 2022, published 2025)
Non-standard residues stand in square brackets, D forms with d. Residues, ends and D or L forms follow the SMILES beside them. Sar = CNCC(=O)O

How the values were obtained:
[1] = system: bovine serum albumin (BSA); test: In vitro protein carbamylation assay (14C-potassium cyanate, scintillation counting); assay type: biochemical; settings: 10 mM nucleophile, 75 μM BSA, 25 μM 14C-Potassium Cyanate, 37° C., 72 hours, n=3
Protocol: The tests were performed as described below. 200 μL of a 0.5% BSA solution, 200 μL of test solution and 100 μL of a 5 μCi/mL 14 C-Potassium Cyanate solution was mixed in an Eppendorf tube (corresponding to a final concentration of 75 μM BSA, 25 μM 14 C-Potassium Cyanate, and 10 mM nucleophile). Samples run in triplicates (n=3). The Eppendorf tubes were incubated at 37° C. for 72 hours.
After incubation a volume of 100 μL of each sample was transferred to a new Eppendorf tube containing 100 μL of a 10% trichloroacetic acid (TCA) and kept at 4° C. overnight (for precipitation of BSA). Subsequently, the precipitated BSA was separated from the buffer by centrifugation (10000 rpm, 30 seconds). The supernatant was removed and the BSA pellet 10 was resuspended in 200 μL of a 10% solution of cold TCA (4° C.). The pellet was recovered by centrifugation (10000 rpm, 30 seconds) and supernatant was discarded. The BSA pellet was resuspended in 100 μL purified water (MilliQ) and transferred to a scintillation vial. The Eppendorf tube (previously containing the BSA pellet) was rinsed with an additional 100 μL purified water which al was transferred to the relevant scintillation vial.

[2] = Aqueous stability in HBSS buffer at 40° C. (HPLC-UV); assay type: physicochemical; settings: 3% wt/wt or 0.4% wt/wt in HBSS buffer, glass vials, 40° C., HPLC-UV, in % (unit assumed)
Protocol: An important aspect of formulating a stable topical product. Data in Table 4 below gives 1 month and 3 month stability data at 40° C. Compounds were dissolved at 3% wt/wt or 0.4% wt/wt (if 3% was not possible) in HBSS buffer and stored in glass vials at temperature. Samples were subsequently analyzed by HPLC-UV.

[3] = Skin homogenate study (degradation half-life, LC-MS/MS); assay type: in vitro ADME, human; settings: pooled human skin homogenate, 37° C., compound working solution 40 μg/mL mixed with equal volume of homogenate
Protocol: To identify which of the dipeptides was readily subject to degradation by proteases and other cell processes in the skin, a number of compounds where tested in a skin homogenate study as described below and the results are listed in table 3.
Dermatomed human skin from multiple skin donors was pooled, homogenized, and adjusted to a tissue concentration of 100 mg tissue per mL of homogenate. The homogenate was used immediately following preparation without any additional freeze/thaw cycles. Working solutions of each compound were prepared in Dulbecco's phosphate-buffered saline (DPBS) at 40 μg/mL. All solutions were pre-heated to 37° C. Equal volumes of skin homogenate and compound working solution were combined, mixed, held at 37° C., and sampled at 0, 15, 30, 60, 120, and 240 minutes. Samples were quenched with acidic acetonitrile, centrifuged, and prepared for LC-MS/MS analysis. Peak areas of each compound at each time-point were determined by LC-MS/MS.
The individual half-life of each dipeptide was determined.
The nature of the experiment should be considered indicative of the relative stability of each of the compounds rather than an absolute correlation to what would happen in vivo. The process of homogenizing the skin is likely to greatly accelerate the degradation. However, it is clear that there is substantial variation in the relative rates for each dipeptide. (See Table 3)

Row | 1 month aqueous stability at 40° C. [2] | 3 month aqueous stability at 40° C. [2] | Half life in skin homogenate [3] | SMILES | Degree of carbamylation (% relative to HBSS control) [1]
1 | 98.4 | 99.7 |  | NCCC(=O)N[C@@H](Cc1c[nH]cn1)C(=O)O [Ala(b)-His (L-Carnosine)] | 72.63 % relative to HBSS control
2 |  |  | 0.383 h | C[C@H](N)C(=O)N[C@@H](C)C(=O)O [Ala-Ala] (H-Ala-Ala-OH) | 
3 |  |  | >8 h | C[C@H](N)C(=O)N[C@H](C)C(=O)O [Ala-D-Ala] (H-Ala-[dA]-OH) | 
4 |  |  | >8 h | C[C@@H](N)C(=O)NCC(=O)O [Ala-Gly (D)] (H-[dA]-Gly-OH) | 
5 |  |  | 1 h | C[C@H](N)C(=O)NCC(=O)O [Ala-Gly] (H-Ala-Gly-OH) | 
6 |  |  |  | C[C@H](N)C(=O)O [Alanine, reference compound] | 93.54 % relative to HBSS control
7 |  |  |  | Cl.N=C(N)NCCC[C@H](N)C(=O)O [Arg*HCl, reference compound] | 66.1 % relative to HBSS control
8 |  |  |  | N=C(N)NCCC[C@H](N)C(=O)O [Arg, Arginine, reference compound] | 52.4 % relative to HBSS control
9 |  |  | 1.28 h | N[C@@H](CC(=O)O)C(=O)N[C@@H](Cc1ccccc1)C(=O)O [Asp-Phe] (H-Asp-Phe-OH) | 
10 |  |  |  | COC(=O)[C@H](Cc1ccccc1)NC(=O)[C@@H](N)CC(=O)O [Aspartame] (H-Asp-Phe-OMe) | 30.4 % relative to HBSS control
11 |  |  |  | CC(C)C[C@H](NC(=O)[C@@H](O)[C@H](N)Cc1ccccc1)C(=O)O [Bestatin, reference compound] | 53.4 % relative to HBSS control
12 |  |  |  | NC(=O)NCCC[C@H](N)C(=O)O [Citrulline, reference compound] | 81.7 % relative to HBSS control
13 |  |  |  | CN(CC(=O)O)C(=N)N [Creatine, reference compound] | 103.92 % relative to HBSS control
14 |  |  |  | NC(=O)CC[C@H](N)C(=O)O [Glutamine, reference compound] | 74.39 % relative to HBSS control
15 |  |  |  | C[C@H](NC(=O)CN)C(=O)O [Gly-Ala] (H-Gly-Ala-OH) | 35.27 % relative to HBSS control
16 |  |  | >8 h | NCC(=O)N[C@@H](CC(=O)O)C(=O)O [Gly-Asp] (H-Gly-Asp-OH) | 
17 |  |  |  | NCC(=O)N[C@@H](CCC(N)=O)C(=O)O [Gly-Gln] (H-Gly-Gln-OH) | 32.99 % relative to HBSS control
18 | 99.0 | 99.7 |  | NCC(=O)N[C@@H](CCC(=O)O)C(=O)O [Gly-Glu] (H-Gly-Glu-OH) | 
19 |  |  | >8 h | NCC(=O)NCC(=O)O [Gly-Gly] (H-Gly-Gly-OH) | 
20 | 99.8 | 79.3 | >8 h | NCC(=O)N[C@@H](Cc1cnc[nH]1)C(=O)O [Gly-His] (H-Gly-His-OH) | 22.6 % relative to HBSS control
21 |  |  | >8 h | NCC(=O)N1CCC[C@H]1C(=O)O [Gly-Pro] (H-Gly-Pro-OH) | 

Row | 1 month aqueous stability at 40° C. [2] | 3 month aqueous stability at 40° C. [2] | Half life in skin homogenate [3] | SMILES | Degree of carbamylation (% relative to HBSS control) [1]
22 |  |  | >8 h | CN(CC(=O)O)C(=O)CN [Gly-Sar] (H-Gly-[Sar]-OH) | 
23 | 97.8 | 70.7 |  | NCC(=O)NC(CO)C(=O)O (stereo not shown) [Gly-Ser] | 33.1 % relative to HBSS control
24 |  |  | 0.8 h | CC(C)[C@H](NC(=O)CN)C(=O)O [Gly-Val] (H-Gly-Val-OH) | 
25 |  |  |  | CC(C)C[C@H](NC(=O)[C@@H](N)Cc1cnc[nH]1)C(=O)O [His-leu] (H-His-Leu-OH) | 27.18 % relative to HBSS control
26 |  |  |  | N[C@@H](Cc1c[nH]cn1)C(=O)O [Histidine, reference compound] | 61.1 % relative to HBSS control
27 | 99.1 | 102.0 | 2.25 h | CC[C@H](C)[C@H](N)C(=O)N1CCC[C@H]1C(=O)O [Ile-Pro] (H-Ile-Pro-OH) | 41.4 % relative to HBSS control
28 |  |  | 0.867 h | NCCCC[C@H](N)C(=O)N1CCC[C@H]1C(=O)O [Lys-Pro] (H-Lys-Pro-OH) | 28.6 % relative to HBSS control
29 |  |  |  | NCCCC[C@H](N)C(=O)O [Lysine, reference compound] | 71.63 % relative to HBSS control
30 |  |  |  | NCCNCC(=O)O [N-β-aminoethyl-Gly] | 29.7 % relative to HBSS control
31 |  |  | 1.93 h | O=C(O)[C@@H]1CCCN1C(=O)[C@@H]1CCCN1 [Pro-Pro] (H-Pro-Pro-OH) | 
32 | 78.1 | 49.0 | 4.73 h | O=C(O)[C@H](CO)NC(=O)[C@@H]1CCCN1 [Pro-Ser] (H-Pro-Ser-OH) | 41.9 % relative to HBSS control
33 | 95.5 | 88.5 | 0.683 h | N[C@@H](CO)C(=O)N1CCC[C@H]1C(=O)O [Ser-Pro] (H-Ser-Pro-OH) | 26.4 % relative to HBSS control
34 |  |  |  | NCCS(=O)(=O)O [Taurine, reference compound] | 58.17 % relative to HBSS control
35 |  |  | 0.75 h | NC(=O)CC(NC(=O)C(N)Cc1c[nH]c2ccccc12)C(=O)O (stereo not drawn) [Trp-Asn] (H-Trp-Asn-OH; configuration not given here) | 
36 |  |  | 1.07 h | N[C@@H](Cc1c[nH]c2ccccc12)C(=O)NCC(=O)O [Trp-Gly] (H-Trp-Gly-OH) | 
37 |  |  | 0.567 h | NC(Cc1c[nH]c2ccccc12)C(=O)N1CCCC1C(=O)O (stereo not shown) [Trp-Pro] | 
38 | 100.4 | 94.0 | 0.833 h | C[C@H](NC(=O)[C@@H](N)Cc1ccc(O)cc1)C(=O)O [Tyr-Ala] | 26.1 % relative to HBSS control
39 |  |  |  | NC(N)=NCCC[C@H](NC(=O)[C@@H](N)Cc1ccc(O)cc1)C(=O)O [Tyr-Arg] | 25.96 % relative to HBSS control
40 |  |  | 0.483 h | N[C@@H](Cc1ccc(O)cc1)C(=O)N1CCC[C@H]1C(=O)O [Tyr-Pro] (H-Tyr-Pro-OH) | 32.8 % relative to HBSS control
41 | 90.5 | 80.9 | 0.65 h | CC(C)[C@H](N)C(=O)N1CCC[C@H]1C(=O)O [Val-Pro] (H-Val-Pro-OH) | 22.1 % relative to HBSS control
42 | 100.7 | 98.2 | <0.125 h | CC(C)[C@H](N)C(=O)N[C@@H](Cc1ccc(O)cc1)C(=O)O [Val-Tyr] (H-Val-Tyr-OH) | 28.9 % relative to HBSS control
